Test results as given in the supplement of paper PMC10307832.

How the values were obtained:
Experiment in all cases: relative viability (nuclei count vs DMSO), 5 days (fraction); higher = more cells survive
Imatinib + Trametinib = compound: Cc1ccc(NC(=O)c2ccc(CN3CCN(C)CC3)cc2)cc1Nc1nccc(-c2cccnc2)n1 [Imatinib] + CC(=O)Nc1cccc(-n2c(=O)n(C3CC3)c(=O)c3c(Nc4ccc(I)cc4F)n(C)c(=O)c(C)c32)c1 [Trametinib] (partner 0.02 µM)
Procedure, shortened: (§1)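 Lung cancer cell lines in 1536-well plates were dosed by pin tool the day after seeding, either with one drug alone or with a fixed anchor-drug dose plus five library-drug doses (not always all listed) in √10 steps. After 5 days, cells were fixed and their nuclei stained in one step (final 0.05% Triton X-100, 1% formaldehyde, 1 ug/ml Hoechst), then counted on 4× images. Relative viability is the nuclei count in treated wells divided by that in vehicle wells. Values are medians of duplicate plates.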

Imatinib + Pictilisib = compound: Cc1ccc(NC(=O)c2ccc(CN3CCN(C)CC3)cc2)cc1Nc1nccc(-c2cccnc2)n1 [Imatinib] + CS(=O)(=O)N1CCN(Cc2cc3nc(-c4cccc5[nH]ncc45)nc(N4CCOCC4)c3s2)CC1 [Pictilisib] (partner 1 µM)
Procedure, shortened: as §1

Imatinib + Alpelisib = compound: Cc1ccc(NC(=O)c2ccc(CN3CCN(C)CC3)cc2)cc1Nc1nccc(-c2cccnc2)n1 [Imatinib] + Cc1nc(NC(=O)N2CCC[C@H]2C(N)=O)sc1-c1ccnc(C(C)(C)C(F)(F)F)c1 [Alpelisib] (partner 2 µM)
Procedure, shortened: as §1

Imatinib + Dasatinib = compound: Cc1ccc(NC(=O)c2ccc(CN3CCN(C)CC3)cc2)cc1Nc1nccc(-c2cccnc2)n1 [Imatinib] + Cc1nc(Nc2ncc(C(=O)Nc3c(C)cccc3Cl)s2)cc(N2CCN(CCO)CC2)n1 [Dasatinib] (partner 0.075 µM)
Procedure, shortened: as §1

Cell Line	relative viability (Imatinib + Trametinib; first compound 0.02 µM)	relative viability (Imatinib + Trametinib; first compound 0.06325 µM)	relative viability (Imatinib + Trametinib; first compound 0.2 µM)	relative viability (Imatinib + Trametinib; first compound 0.6325 µM)	relative viability (Imatinib + Trametinib; first compound 2 µM)	relative viability (Imatinib + Pictilisib; first compound 0.02 µM)	relative viability (Imatinib + Pictilisib; first compound 0.06325 µM)	relative viability (Imatinib + Pictilisib; first compound 0.2 µM)	relative viability (Imatinib + Pictilisib; first compound 0.6325 µM)	relative viability (Imatinib + Pictilisib; first compound 2 µM)	relative viability (Imatinib + Alpelisib; first compound 0.02 µM)	relative viability (Imatinib + Alpelisib; first compound 0.06325 µM)	relative viability (Imatinib + Alpelisib; first compound 0.2 µM)	relative viability (Imatinib + Alpelisib; first compound 0.6325 µM)	relative viability (Imatinib + Alpelisib; first compound 2 µM)	relative viability (Imatinib + Dasatinib; first compound 0.02 µM)	relative viability (Imatinib + Dasatinib; first compound 0.06325 µM)	relative viability (Imatinib + Dasatinib; first compound 0.2 µM)	relative viability (Imatinib + Dasatinib; first compound 0.6325 µM)	relative viability (Imatinib + Dasatinib; first compound 2 µM)
NCI-H1755	0.793	0.811	0.839	0.782	0.725	0.457	0.348	0.531	0.495	0.473	1.09	1.04	1.13	0.949	0.981	0.415	0.392	0.41	0.422	0.408
NCI-H1915	0.328	–	0.293	0.304	0.312	0.962	–	1.01	0.958	0.871	1.07	–	1.09	1.05	0.966	0.298	–	0.368	0.312	0.305
HARA	0.583	0.574	0.633	0.467	0.727	0.42	0.406	0.389	0.363	0.339	1	0.501	0.822	0.697	0.804	0.309	–	0.279	0.217	0.27
NCI-H2228	0.663	0.338	0.467	0.507	0.605	0.525	0.178	0.427	0.534	0.52	0.814	0.782	0.724	0.626	0.807	0.621	–	0.464	0.424	0.55
COR-L 105	0.44	0.495	0.452	0.433	0.419	0.37	0.372	0.508	0.406	0.385	1.29	1.35	1.18	0.882	1.01	0.324	0.335	0.277	0.308	0.287
CAL-12T	0.336	0.324	0.321	0.411	0.398	0.507	0.433	0.486	0.667	0.524	1.47	1.62	1.42	1.17	1.14	0.625	–	0.612	0.503	0.51
SK-MES-1	0.642	0.663	0.589	0.587	0.588	0.366	0.323	0.39	0.357	0.379	0.887	0.891	1.03	0.954	0.988	0.372	0.309	0.372	0.318	0.337
HCC-827	0.483	0.517	0.646	0.562	0.515	0.817	0.942	1.1	0.926	0.952	0.987	0.861	1.05	–	1.01	0.287	0.269	0.239	0.151	0.272
NCI-H2087	0.179	–	0.221	0.189	–	1.13	0.44	0.796	–	0.858	0.975	1.19	1.23	0.96	1.05	0.817	–	0.949	0.89	–
NCI-H1666	0.82	0.855	0.823	1.09	0.924	0.327	0.406	0.381	0.48	0.393	1.04	1.05	1.09	1.34	0.887	0.83	0.838	0.825	0.792	0.697
EMC-BAC-2	0.887	1	0.904	1.07	0.853	0.513	0.505	0.614	0.536	0.582	0.823	0.81	0.877	0.788	0.844	0.337	0.349	0.322	0.327	0.308
NCI-H2023	0.729	0.6	0.564	–	0.618	0.247	0.191	0.224	0.213	0.217	0.633	0.728	0.653	0.577	0.586	0.751	0.33	0.565	0.591	0.509
NCI-H2405	0.623	0.538	0.637	0.516	0.634	0.482	–	0.428	0.353	0.52	0.922	–	0.823	0.643	0.95	0.22	–	0.203	0.217	0.192
NCI-H460	0.142	0.102	0.199	0.125	0.21	0.465	0.277	0.335	0.506	0.3	0.632	0.818	0.667	0.532	0.465	0.678	0.675	0.649	0.456	0.493
NCI-H3122	0.25	0.292	0.236	0.253	0.216	0.647	0.551	0.572	0.666	0.679	0.763	0.939	0.894	0.865	0.837	–	0.518	0.921	0.894	0.808
LC-2-ad	0.956	–	1.01	0.973	0.908	0.379	0.492	0.573	0.429	0.43	0.965	0.967	0.913	0.819	0.817	0.603	0.545	0.461	0.484	0.588
NCI-H596	0.721	1.06	0.876	0.693	–	0.416	0.375	0.42	0.394	0.388	0.489	0.459	0.39	0.446	0.448	0.597	0.582	0.831	0.499	0.641
